Consider six molecules from publication PMC10937556, “Phenolic phytochemistry, in vitro, in silico, in vivo, and mechanistic anti-inflammatory and antioxidant evaluations of Habenaria digitata” (Frontiers in Pharmacology, 2024).

Structures can show the parent of a compound that is named as a salt.

One assay concerns SOD. The assay is described as follows: In vivo antioxidant: SOD activity in brain, heart, liver. On the set-up: species or system mice. The conditions noted are these: p < 0.05, D-galactose aging mice.
Assay [1] concerns carrageenan-induced paw edema. As to the kind of experiment: Carrageenan-induced paw edema. The conditions noted are these: dose 5 mg/kg. The assay is classed as in vivo, mice. As to the method:
Mice of both sexes (25–30 g) were used for in vivo anti-inflammatory activity of test samples on the carrageenan-induced inflammation model ([Munir et al., 2020]). Mice were distributed into five groups, with eight animals in each group, divided at random. Group-I served as the negative control and received DMSO at a dose of 10 mL/kg body weight. Group-II served as a positive control, which received aspirin at a dose of 100 mg/kg body weight. […] Each mouse received 1 percent (w/v) saline solution (0.05 mL) of carrageenan in the sub-planter region after a 30-min interval. The paw edema volume was determined using a plethysmometer (LE 7500-plan lab S.L) at 1–5 h intervals after carrageenan was given. […] The percentages of inhibition of inflammation were calculated using the formula given below: % inhibition=EC−ET/EC×100, where “EC” is the average edema of control and “ET” is the edema of the tested group.
For orientation: Carrageenan injected into the paw causes an acute inflammation.

Assay [2] deals with histamine-induced paw edema. As to the kind of experiment: Histamine-induced paw edema. The conditions noted are these: reference drug, 1 h.
Description: (§1) Employing prostaglandin E2, bradykinin, leukotriene, and histamine induced paw edema assays; the potential anti-inflammatory mechanism of the isolated compound was investigated. […] Sub-planter injections of prostaglandin E2 (0.01 mg/mL) or 10 mg/mL leukotriene or bradykinin (20 mg/mL) or 0.1 mL histamine (1 mg/mL) produced paw edema after 1 h. Each mouse’s paw volume was assessed immediately before and after sub-planter injection of various irritants (inflammatory agents) at 1–5 h.
Assay [3] can be described thus: ABTS free radical scavenging assay. As to the method:
The ABTS anti-radicals’ analysis was carried out according to [Shah et al. (2015)]. The ABTS solution was prepared by dissolving ABTS salt (192 mg) in distilled H2O, transferred to a flask (50 mL), and volume was adjusted. Thereafter, 1 mL of the preceding solution was added to 17 µL of K₂S₂O₈ (140 mM) and placed in the dark for 24 h s. The experiment’s ultimate ABTS dilution was achieved by mixing 1 mL of the reaction mixture with 50 mL of methanol. The ABTS solution (190 µL) was mixed with the sample solution (10 µL) and added to 96-well plates, which were then incubated at room temperature in dark for 2 h. Following incubation, the measurement of ABTS color intensity was conducted using a microplate reader at 734 nm. Positive control solutions were prepared at values of 1,000–62.5 µM. The percentage of ABTS scavenging was determined by using the following equation: % ABTS scavenging=Control−Sample/control×100.

The nature of assay [4]: DPPH free radical scavenging assay. As for the experimental part: The DPPH (anti-radicals) investigation was carried out according to our earlier reported protocols. Initially, a methanolic DPPH solution was prepared with a concentration of 0.1%. Subsequently, 100 µL of this solution was mixed with an equal volume of the test samples (100 µL) in 96-well plates, following a 30-min incubation period at 25°C ± 3 °C in the dark. Solutions with concentrations ranging from […] were prepared. Five concentrations of 1,000, 500, 250, 125, and 62.5 µM of the Trolox methanolic solution ([…]) were formed. A color reduction in DPPH was observed after incubation; a microplate reader was used, and absorbance was measured at 540 nm ([Mahnashi et al., 2022a]; [Huneif et al., 2022]). The percentage of scavenging was determined by the formula: Scavenging effect %=control absorbance−sample absorbance/control absorbance×100.
For orientation: DPPH is a stable violet radical that fades when it is reduced.

A short description of assay [5]: H2O2 free radical scavenging activity. As to the method: The antioxidant potential of isolated compounds was determined using this approach. In a phosphate buffer solution (50 mM, pH 7.40), a solution of H2O2 (2 mM) was produced. The crude extract (0.10 mL) was measured in a test tube and diluted to 0.40 mL using phosphate buffer. Thereafter, H2O2 (0.60 mL) was added and thoroughly mixed. […] 230 nm was used to measure the absorbance of the sample and the standard ([Sadiq et al., 2018]). For all the crude samples, the exact process was followed. According to the procedure, the inhibition percentage and IC50 values were computed.

Assay [6] deals with leukotriene-induced paw edema. As to the kind of experiment: Leukotriene-induced paw edema. The note with it: standard drug, 3rd hour.
Description: as §1
Assay [7] concerns prostaglandin E2-induced paw edema. As to the kind of experiment: Prostaglandin E2-induced paw edema. The note with it: 50 mg/kg.
Description: as §1

For the molecule `Cc1c(C)c2c(c(C)c1O)CCC(C)(C(=O)O)O2` (stereo not shown) [Trolox, reference compound], the “SOD activity compared to the model group” value with SOD is listed as “higher”.

With `CC(=O)Oc1ccccc1C(=O)O` [Aspirin, reference compound], the “Percentage inhibition of paw edema” value in assay [1] (1 h) amounted to 47.50 ± 1.10 %; in assay [1] (2 h), 53.61 ± 1.45 %; in assay [1] (3 h), 54.24 ± 1.34 %; in assay [1] (4 h), 57.90 ± 1.93 %; in assay [1] (5 h), 58.62 ± 1.53 %; in assay [1] (5 h, listed as aspirin), 58.62%.

As for `CN(C)CCC(c1ccc(Cl)cc1)c1ccccn1` (stereo not shown) [chlorpheniramine maleate, reference compound], the “Percentage inhibition of histamine-induced paw edema” value in assay [2] was 71.62 ± 1.16%.

Consider `O=C1O[C@H]([C@@H](O)CO)C(O)=C1O` [AA, ascorbic acid, reference compound], for which the “ABTS IC50” value in assay [3] turned out to be 0.12 µg/mL. The ABTS % inhibition was 81.12 ± 0.34% in assay [3] (62.5 µg/mL); 84.47 ± 0.49% in assay [3] (125 µg/mL); 87.75 ± 0.14% in assay [3] (250 µg/mL); 91.59 ± 0.30% in assay [3] (500 µg/mL); 95.85 ± 0.18% in assay [3] (1,000 µg/mL). Also, the “DPPH IC50” value in assay [4] is 0.47 µg/mL. Moreover, the DPPH % inhibition in assay [4] (62.5 µg/mL) came to 81.35 ± 0.18%; in assay [4] (125 µg/mL), 84.20 ± 0.15%; in assay [4] (250 µg/mL) it was 88.42 ± 0.11%; in assay [4] (500 µg/mL), 93.62 ± 0.17%; in assay [4] (1,000 µg/mL), 97.53 ± 0.20%. For the same molecule, the “H2O2 IC50” value in assay [5] was 02 µg/mL. The H2O2 % inhibition in assay [5] (62.5 µg/mL) was determined as 71.73 ± 0.66%; in assay [5] (125 µg/mL), 73.70 ± 0.35%; in assay [5] (250 µg/mL), 78.07 ± 0.62%; in assay [5] (500 µg/mL), 83.01 ± 0.42%; in assay [5] (1,000 µg/mL), 87.50 ± 2.26%.

As for `CC(C)(O)c1ccccc1CC[C@@H](SCC1(CC(=O)O)CC1)c1cccc(/C=C/c2ccc3ccc(Cl)cc3n2)c1` [Montelukast, reference compound], the “Percentage inhibition of leukotriene-induced paw edema” value in assay [6] turned out to be 67.02 ± 1.74%.

For `Cc1ccc(-c2cc(C(F)(F)F)nn2-c2ccc(S(N)(=O)=O)cc2)cc1` [Celecoxib, reference compound], in assay [7], the “Effect on increased PGE2 level” value is on record as “significant reduction”.
